For six molecules, inhibition results are on record in ChEMBL document CHEMBL1129812, “Oestrone 3-O-(N-acetyl)sulphamate, a potential molecular probe of the active site of oestrone sulphatase” (Bioorg Med Chem Lett, 1997).

The source made the active and inactive calls. The calls are words filed in the database; no cut-off is given here.

The target in assay [1] is T1, Steryl-sulfatase (Homo sapiens) (UniProt P08842).
T1 sequence (whole entry): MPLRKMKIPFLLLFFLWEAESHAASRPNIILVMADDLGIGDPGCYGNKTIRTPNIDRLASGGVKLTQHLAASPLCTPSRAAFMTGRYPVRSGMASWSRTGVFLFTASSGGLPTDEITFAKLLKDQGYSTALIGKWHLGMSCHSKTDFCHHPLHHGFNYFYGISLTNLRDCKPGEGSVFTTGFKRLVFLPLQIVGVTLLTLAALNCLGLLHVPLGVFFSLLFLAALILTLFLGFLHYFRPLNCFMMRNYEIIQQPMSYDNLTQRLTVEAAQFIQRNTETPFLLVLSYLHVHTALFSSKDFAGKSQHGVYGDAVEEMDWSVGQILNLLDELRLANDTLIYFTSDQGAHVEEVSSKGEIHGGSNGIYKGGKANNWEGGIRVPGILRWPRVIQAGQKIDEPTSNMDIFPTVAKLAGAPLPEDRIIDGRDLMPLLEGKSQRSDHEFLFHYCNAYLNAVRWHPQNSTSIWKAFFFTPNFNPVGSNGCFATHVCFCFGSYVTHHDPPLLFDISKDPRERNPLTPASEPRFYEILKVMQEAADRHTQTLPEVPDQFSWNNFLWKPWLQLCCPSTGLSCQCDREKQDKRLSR
Put plainly: Compound was tested for percent inhibitory activity against Estrone sulfatase 1 (E1-STS) at 0.10 uM in placental microsomes. The settings on record: Placenta.

For assay [2], the target named is T1, Steryl-sulfatase (Homo sapiens). Put plainly: Compound was tested for percent inhibitory activity against Estrone sulfatase 1 (E1-STS) at 25 uM in placental microsomes. The conditions noted are these: Placenta.
Assay [3] shares this target. Put plainly: Compound was tested for percent inhibitory activity against Estrone sulfatase 1 (E1-STS) at 10 uM in placental microsomes. The conditions noted are these: Placenta.
For assay [4] the target is unchanged. The experiment in a line: Compound was tested for percent inhibitory activity against Estrone sulfatase 1 (E1-STS) at 0.20 uM in placental microsomes. The settings on record: Placenta.
Assay [5] shares this target. Put plainly: In vitro percentage inhibition of Estrone sulfatase 1 (EI-STS) activity at concentration of 0.1 micro M in intact MCF-7 breast cancer cells. It is filed as cell-based. The settings on record: MCF7.
Assay [6] has the same target. The experiment in a line: Compound was tested for percent inhibitory activity against Estrone sulfatase 1 (E1-STS) at 50 uM in placental microsomes. The conditions noted are these: Placenta.
For assay [7] the target is unchanged. The experiment in a line: Compound was tested for percent inhibitory activity against Estrone sulfatase 1 (E1-STS) at 100 uM in placental microsomes. The conditions noted are these: Placenta.
Assay [8] has the same target. The experiment in a line: Compound was tested for percent inhibitory activity against Estrone sulfatase 1 (E1-STS) at 20 uM in placental microsomes. The conditions noted are these: Placenta.
Assay [9] deals with T2, Steryl-sulfatase (Rattus norvegicus) (UniProt P15589).
T2 sequence (whole entry): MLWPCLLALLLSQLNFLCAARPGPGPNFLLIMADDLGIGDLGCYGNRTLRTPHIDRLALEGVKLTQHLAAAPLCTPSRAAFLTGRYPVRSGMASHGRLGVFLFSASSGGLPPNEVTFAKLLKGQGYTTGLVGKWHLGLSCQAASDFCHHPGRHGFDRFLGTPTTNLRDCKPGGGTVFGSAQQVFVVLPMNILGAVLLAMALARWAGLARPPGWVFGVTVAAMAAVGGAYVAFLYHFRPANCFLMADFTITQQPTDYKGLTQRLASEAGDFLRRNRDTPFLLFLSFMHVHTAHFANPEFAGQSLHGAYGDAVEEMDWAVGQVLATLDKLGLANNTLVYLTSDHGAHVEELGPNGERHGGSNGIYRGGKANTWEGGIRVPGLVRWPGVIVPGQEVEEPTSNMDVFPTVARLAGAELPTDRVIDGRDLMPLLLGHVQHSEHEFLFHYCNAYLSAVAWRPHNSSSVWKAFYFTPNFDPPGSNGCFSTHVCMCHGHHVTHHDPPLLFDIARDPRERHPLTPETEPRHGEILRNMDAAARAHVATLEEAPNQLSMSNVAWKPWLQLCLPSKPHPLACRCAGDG
The experiment in a line: In vivo inhibition of rat liver Estrone sulfatase 1 (E1-STS) by oral or subcutaneous dose; Almost complete inhibition. In kind it is organism-based.

In assay [10] the target is T1, Steryl-sulfatase (Homo sapiens). The settings on record: Placenta; Microsomes; 0.1 uM.
Description: Compound was tested for percent inhibitory activity against Estrone sulfatase 1 (E1-STS) at 0.1 uM in placental microsomes
For assay [11] the target is unchanged. The settings on record: Placenta; Microsomes; 1.0 uM.
Description: Compound was tested for percent inhibitory activity against Estrone sulfatase 1 (E1-STS) at 1.0 uM in placental microsomes
The target is the same in assay [12]. The conditions noted are these: Placenta; Microsomes; 0.2 uM.
Description: Compound was tested for percent inhibitory activity against Estrone sulfatase 1 (E1-STS) at 0.2 uM in placental microsomes

In the case of `CC(=O)NS(=O)(=O)Oc1ccc2c(c1)CCC1[C@@H]2CC[C@]2(C)C(=O)CC[C@@H]12` (single isomer, unassigned), the inhibition in assay [1] is 63%; in assay [2], greater than 99%; in assay [3], 92%; in assay [4] it was 30%.

In the case of `CN(C)S(=O)(=O)Oc1ccc2c(c1)CCC1[C@@H]2CC[C@]2(C)C(=O)CC[C@@H]12` (single isomer, unassigned), the inhibition in assay [5] turned out to be 50%.

On to `CNS(=O)(=O)Oc1ccc2c(c1)CCC1[C@@H]2CC[C@]2(C)C(=O)CC[C@@H]12` (single isomer, unassigned), for which the inhibition in assay [5] is 80%.

Regarding `C[C@]12CC[C@@H]3c4ccc(OS(=O)(=O)N(Cc5ccccc5)Cc5ccccc5)cc4CCC3[C@@H]1CCC2=O` (single isomer, unassigned), the inhibition stood at 63% in assay [6], 75% in assay [7] and 43% in assay [8].

With `C[C@]12CC[C@@H]3c4ccc(OS(=O)(=O)N5CCCCC5)cc4CCC3[C@@H]1CCC2=O` (single isomer, unassigned), the inhibition in [6] was 17%; in [7], 20%; in [8], 13%.

`C[C@]12CC[C@@H]3c4ccc(OS(N)(=O)=O)cc4CCC3[C@@H]1CCC2=O` (single isomer, unassigned): the inhibition entry in assay [9] was “Active”. For the same molecule, the inhibition in assay [10] came to 50%; in assay [11], 95%; in assay [12] it was 82%.

Broadly, the inhibition is the percentage by which the read-out fell short of the control.
